This is an account of results in ChEMBL document CHEMBL3507680, “University of Dundee, Gates Library screen for HepG2 cell viability”.

SMILES strings stand for the structures.

This data set is described as follows: Human HepG2 cell viability assay in 384 well format. On the set-up: dose 125 nL, time 70.5 hour; cytotoxicity at 70.5 h: concentration not given beside the values. To be noted: HepG2 cells, read-out: Inhibition. In kind it is toxicity, cell-based.
`Fc1cnc(N2CCO[C@H]3CN(CC4CCCC4)C[C@H]32)nc1`: the cytotoxicity at 70.5 h is -13%.

As for `CC(=O)c1cc(CN2CCCCC2c2nc3cc(F)ccc3[nH]2)cs1` (centres undefined), the cytotoxicity at 70.5 h is -5.07%.

For the compound `COc1ccccc1NC(=O)CCNC(=O)c1ccoc1`, the cytotoxicity at 70.5 h worked out at 0.887%.

Consider `Cc1cc(F)ccc1CCNC(=O)NCC(C)N1CCOCC1` (centres undefined), for which the cytotoxicity at 70.5 h was 3.68%.

Turning to `c1cnn(CC2CCCCN2c2ncnc3sccc23)c1` (centres undefined), the cytotoxicity at 70.5 h is -6.33%.

Regarding `O=C(NCCNc1cnccn1)N1CC=C(c2ccc(O)cc2)CC1`, the cytotoxicity at 70.5 h is 2.47%.

Turning to `CN(C)CCn1c2c(ccc1=O)CCN(C(=O)c1cccs1)CC2`, the cytotoxicity at 70.5 h was -5.63%.

In the case of `CS(=O)(=O)NC1CCN(C(=O)NCCNc2ccccn2)CC1`, the cytotoxicity at 70.5 h turned out to be 20.3%.

On to `Cc1nnc(NC(=O)NC(C)Cn2cccn2)s1` (centres undefined), for which the cytotoxicity at 70.5 h was -7.53%.

On to `CN1CCCN(Cc2nc(Cc3ccccc3)n[nH]2)CC1`, for which the cytotoxicity at 70.5 h was -3.87%.

`Cc1cnn(CC(C)Nc2nc(C)cc(N(C)C)n2)c1` (centres undefined): the cytotoxicity at 70.5 h was -6.1%.

For the compound `Cc1ccc(C(=O)N2CCCC2c2nnc3n2CCCCC3)s1` (centres undefined), the cytotoxicity at 70.5 h amounted to 8.9%.

`CO[C@H]1CC[C@H]2[C@H]1OCCN2CCOCc1ccccc1`: the cytotoxicity at 70.5 h is -11.7%.

For the compound `Fc1cccc(C2(CNC3CCCNC3)CCOCC2)c1` (centres undefined), the cytotoxicity at 70.5 h is -1.46%.

On to `NC(=O)CSCCC(=O)N1CCCC1c1ccsc1` (centres undefined), for which the cytotoxicity at 70.5 h was -6.66%.

As to `CC(SCc1ccc(Br)c2cccnc12)C(N)=O` (centres undefined), the cytotoxicity at 70.5 h is 18.2%.

Consider `Cc1cc(=O)n2nc(Oc3ccc(C#N)cc3Cl)sc2n1`, for which the cytotoxicity at 70.5 h is -28%.

In the case of `CC(C)C(=O)N1CC[C@H]2N(C)CC[C@@]2(C(=O)Nc2cccnc2)CC1`, the cytotoxicity at 70.5 h was -10.9%.

For the compound `CC(Cn1cccn1)NCc1nc(-c2cccs2)no1` (centres undefined), the cytotoxicity at 70.5 h was found to be 3.96%.

For the compound `CSc1ncc(CNC(C)c2cnn(-c3ccccc3)c2C)cn1` (centres undefined), the cytotoxicity at 70.5 h was -2.21%.

For the compound `NC(=O)CCCNC(=O)CCc1cc(Br)cs1`, the cytotoxicity at 70.5 h is -5.18%.

As to `N#Cc1cccnc1Oc1cc(F)c(CN2CCCC2)c(Cl)c1`, the cytotoxicity at 70.5 h is -1.54%.

As to `CN1CCNC(=O)C12CCN(C(=O)c1ccc3[nH]c(=O)[nH]c3c1)CC2`, the cytotoxicity at 70.5 h is -7.66%.

Consider `CCC(C)(C)NC(=O)c1ncn2c1CN(C)S(=O)(=O)c1ccccc1-2`, for which the cytotoxicity at 70.5 h came out at 20.8%.

Take `Cc1cccc(-c2nc(C)nn2CC(=O)NCC(C)C)c1`: the cytotoxicity at 70.5 h was found to be 5.13%.

For the compound `O=C(CCC1CCCO1)N1CCc2nc(-c3cnccn3)nc(O)c2C1` (centres undefined), the cytotoxicity at 70.5 h is -3.93%.

On to `CCc1nc(CNC2CCN(S(C)(=O)=O)CC2)cs1`, for which the cytotoxicity at 70.5 h was -0.997%.

For `Cc1cc(C)c(CNC(=O)Cc2ccc3c(c2)CCCC3)c(=O)[nH]1`, the cytotoxicity at 70.5 h was -7.45%.

Regarding `CO[C@H]1CN(C(=O)c2nc(-c3ccccc3)[nH]c2C)CC[C@H]1N`, the cytotoxicity at 70.5 h amounted to 25.8%.

With `Cc1nn(C)c(C)c1CC(=O)NCC1(C(N)=O)CCOCC1`, the cytotoxicity at 70.5 h is 22.8%.

`Cc1ccc2[nH]c(C(=O)N3CCC4(CC3)C(=O)NCCN4C)nc2c1`: the cytotoxicity at 70.5 h is -6.83%.

For `CNc1ncc(C(=O)N2CCOC(C(=O)Nc3ccccc3)C2)cn1` (centres undefined), the cytotoxicity at 70.5 h was -2.73%.

Take `O=C(C1CCOC1)N1CCc2ncnc(C3CC3)c2CC1` (centres undefined): the cytotoxicity at 70.5 h came to 0.686%.

Regarding `Cc1ccc(C(NC(=O)Cc2nc3ncccn3n2)C2CC2)cc1` (centres undefined), the cytotoxicity at 70.5 h was -11.9%.

Take `CS(=O)(=O)Nc1ccn(Cc2cccc(Cl)c2)n1`: the cytotoxicity at 70.5 h is -4.43%.

Take `COCCN1CCN(C(=O)c2cc(C(C)C)on2)[C@H]2CS(=O)(=O)C[C@H]21`: the cytotoxicity at 70.5 h amounted to 2.11%.

Regarding `CCN1CCN(C[C@@H]2CN(Cc3cnc(C(C)C)nc3)C[C@@H]2CO)CC1`, the cytotoxicity at 70.5 h came to 13.2%.

For the compound `c1csc(-c2nc(CN3CCCCC3Cn3cncn3)cs2)c1` (centres undefined), the cytotoxicity at 70.5 h is -14.9%.

`CN(C)c1nccc(CNS(=O)(=O)c2ccc(F)c(Cl)c2)n1`: the cytotoxicity at 70.5 h is -5.5%.

Regarding `COc1c(C)cnc(CN2CCC(N(C)C(=O)C3CC3)CC2)c1C`, the cytotoxicity at 70.5 h is -10.5%.

Take `O=C(c1cnn(-c2ccccc2F)c1)N1CCN(CCO)CC1`: the cytotoxicity at 70.5 h was -3.38%.

As to `CN1CC(=O)N(c2ccsc2)CC12CCN(C(=O)c1cccn1C)C2` (centres undefined), the cytotoxicity at 70.5 h was -5.46%.

Take `OC1(CNCc2cnc(N3CCOCC3)nc2)CCCCC1`: the cytotoxicity at 70.5 h is -5.66%.

With `CCOCc1nc2c(c(N(C)Cc3snnc3C)n1)CCNCC2`, the cytotoxicity at 70.5 h is -9.47%.

With `O=C1CC2(CCN(Cc3ccccn3)C2)CN1c1cncnc1` (centres undefined), the cytotoxicity at 70.5 h is -16.1%.

Regarding `COc1cc(N2CCC3(CCCN(Cc4ccccn4)C3)C2)ncn1` (centres undefined), the cytotoxicity at 70.5 h is -5.46%.

Regarding `O=C(NC1CCN(c2ccc(-c3ccccc3F)nn2)C1)c1ccc[nH]1` (centres undefined), the cytotoxicity at 70.5 h is 10.6%.

`Cc1c(NC(=O)N(C)CCO)cccc1OC1CCCC1`: the cytotoxicity at 70.5 h was -7.3%.

For `CCC1CCCCN1C(=O)Cn1nc(-c2ccc(C)o2)cc(N)c1=O` (centres undefined), the cytotoxicity at 70.5 h is -15.1%.

As for `COC(=O)NCC(=O)N1CCC(c2nc3cc(F)ccc3[nH]2)CC1`, the cytotoxicity at 70.5 h is -2%.

Turning to `CN(C)S(=O)(=O)Nc1ccc(Oc2ccc3c(c2)OCO3)cc1`, the cytotoxicity at 70.5 h was -5.35%.

As for `Cc1ccc(CN2Cc3cnn(C)c3C(COCC3CC3)C2)o1` (centres undefined), the cytotoxicity at 70.5 h worked out at 2.56%.

Consider `CCc1ccsc1CNC(=O)CNC(=O)C(C)(C)C`, for which the cytotoxicity at 70.5 h was -7.92%.

In the case of `CC(C)Nc1cc(N2CCC(n3cc(C4CC4)nn3)CC2)ncn1`, the cytotoxicity at 70.5 h stood at 23.9%.

For the compound `CN1C(=O)C2(CCN(S(=O)(=O)C3CC3)CC2)c2ccccc21`, the cytotoxicity at 70.5 h was -2.07%.

`CN(C)[C@@H]1CCN(c2ncccn2)[C@H]1Cc1ccncc1`: the cytotoxicity at 70.5 h is -5.48%.

Regarding `CC(C)N1CCc2[nH]nc(C(=O)N3CCN(C)CC3)c2C1`, the cytotoxicity at 70.5 h is -1.5%.

For the compound `CC(C)CN1CCc2[nH]cnc2C12CCN(C(=O)c1ccnn1C)CC2`, the cytotoxicity at 70.5 h is -2.45%.

Regarding `Cc1nc(CN2CCN(C)C(=O)C23CCN(CC2CCCC2)CC3)cs1`, the cytotoxicity at 70.5 h is -9.21%.

With `CC(=O)N1CCn2c(-c3cccc(F)c3)cnc2C12CCNCC2`, the cytotoxicity at 70.5 h is -7.49%.

On to `Clc1cccc(OCCCN2CCOC(Cn3cncn3)C2)c1` (centres undefined), for which the cytotoxicity at 70.5 h was 1.4%.

With `CCCn1cc(C(=O)N2CCOC(c3nc(-c4cccs4)no3)C2)cn1` (centres undefined), the cytotoxicity at 70.5 h was -4.18%.

As to `O=C(NC[C@H]1CC[C@H](c2ccnc3ncnn32)CC1)c1ccccn1`, the cytotoxicity at 70.5 h was -6.58%.

`CC(C)N1c2sc(-c3ccsc3)nc2CC1C(=O)NC1CCCC1` (centres undefined): the cytotoxicity at 70.5 h is -7.06%.

`CC(C)(C)c1cn2nc(N3CCCC(Cn4cncn4)C3)sc2n1` (centres undefined): the cytotoxicity at 70.5 h is -9.57%.

For `O=C(Nc1cnccn1)[C@@H]1C[C@H]2OCC[C@H]2N(Cc2ccsc2)C1`, the cytotoxicity at 70.5 h was -7.42%.

Regarding `Cc1cc(CNc2cccc(Cl)c2C)no1`, the cytotoxicity at 70.5 h was -17.1%.

For `CN(C)C(=O)N1CCc2c(nnn2C)C1COCC1CC1` (centres undefined), the cytotoxicity at 70.5 h is -2.28%.

With `O=C(NCC(F)(F)F)C1CSCN1S(=O)(=O)c1ccc(F)cc1` (centres undefined), the cytotoxicity at 70.5 h is -4.65%.

For `COCc1nc(CNC(=O)c2cc(C)c(C)[nH]c2=O)no1`, the cytotoxicity at 70.5 h is 2.71%.

With `Cn1nc(CNC(=O)c2ccc(Cl)cc2)c2c1CCOC2`, the cytotoxicity at 70.5 h stood at 3.98%.

With `CCSc1cc(C(=O)N(C(C)C)C2CC2)ccn1`, the cytotoxicity at 70.5 h is -3.36%.

For `O=C1NC2(CCNCC2)CC1c1ccncc1` (centres undefined), the cytotoxicity at 70.5 h turned out to be 10.1%.

For `COc1ccc(C(N)=O)cc1NCc1nc(-c2cccs2)oc1C`, the cytotoxicity at 70.5 h was -102%.

On to `Cc1ncsc1CCN1CCN(C(=O)c2ccc(=O)[nH]c2)CC1`, for which the cytotoxicity at 70.5 h is -1.09%.

On to `O=C(c1nccc2ccccc12)N(Cc1ccco1)CC1CCCO1` (centres undefined), for which the cytotoxicity at 70.5 h was found to be 9.69%.

Take `Cc1noc(C)c1CNC(=O)N(C1CC1)C(C)c1ccco1` (centres undefined): the cytotoxicity at 70.5 h was -3.98%.

As to `CCCn1nnnc1CN1Cc2ccccc2CC1c1nnc(C)o1` (centres undefined), the cytotoxicity at 70.5 h was -8.77%.

Regarding `C[C@@H]1C[C@H](C(F)(F)F)n2nc(C3CCN(S(C)(=O)=O)CC3)cc2N1`, the cytotoxicity at 70.5 h was -2.94%.

Take `COCCN(C)Cc1nc(-c2cccc(F)c2F)oc1C`: the cytotoxicity at 70.5 h is -11.3%.

Consider `Cc1ccc(-c2nnc(CCC(=O)N3CCCC3c3ccc[nH]3)o2)cc1` (centres undefined), for which the cytotoxicity at 70.5 h was -2%.

Take `Cc1noc(CNC(=O)CN(C)c2nc3ccccc3s2)n1`: the cytotoxicity at 70.5 h was -5.76%.

Turning to `CCCOc1ccccc1NCC(=O)Nc1ccc(CC)cc1`, the cytotoxicity at 70.5 h was -6.36%.

Take `CCN(C)c1ncnc2c1CCN(C(=O)N1CCOCC1)CC2`: the cytotoxicity at 70.5 h is 6.06%.

For the compound `Cc1c(C(=O)N2CCCC(O)(CN(C)C)CC2)c2cc(O)ccc2n1C` (centres undefined), the cytotoxicity at 70.5 h was found to be 13.3%.

In the case of `CNC(=O)[C@H]1C[C@@H]2CN(C(=O)c3ccoc3)C[C@@H]2N1S(C)(=O)=O`, the cytotoxicity at 70.5 h was -12%.

Consider `CCC[C@]12CN3C[C@](C)(CN(C1)C3c1[nH]c(=O)[nH]c(=O)c1C)C2=O` (some centres undefined), for which the cytotoxicity at 70.5 h is -9.33%.

`Cc1nn(CC(=O)N2CCN(c3ccc(F)cc3)CC2)c(C)c1Cl`: the cytotoxicity at 70.5 h is 26.3%.

As for `O=c1ccc(-c2cccs2)nn1CN1CCc2ccccc2C1`, the cytotoxicity at 70.5 h was -23.7%.

With `O=C1NCc2ccccc2CC12CCN(Cc1ccncc1Cl)C2` (centres undefined), the cytotoxicity at 70.5 h is -3.37%.

As to `Cc1noc(C)c1CN1C[C@@H]2CC(F)(F)C[C@@H]2C1`, the cytotoxicity at 70.5 h was -2.12%.

As to `CCN(CC)C(=O)CNC(=O)N1CCC(c2ccc(OC)cc2)C1` (centres undefined), the cytotoxicity at 70.5 h was found to be 12.9%.

With `CNc1nc(CNC(=O)Nc2cccc(C(C)OC)c2)cs1` (centres undefined), the cytotoxicity at 70.5 h is -4.31%.

Take `COc1cccc(N2CCN(Cc3ccc4[nH]ccc4c3)CC2=O)c1`: the cytotoxicity at 70.5 h was -12.1%.

With `Cc1nnn2c1COCC(CNC(=O)c1ccc[nH]1)C2` (centres undefined), the cytotoxicity at 70.5 h is 7.03%.

As for `CC(NCc1ccc(-c2ccc(Cl)cc2)o1)c1nnc2n1CCC2` (centres undefined), the cytotoxicity at 70.5 h is -4.6%.

`Cc1cc(C(=O)NCc2ccnc(N3CCN(C)CC3)c2)no1`: the cytotoxicity at 70.5 h is -0.337%.

Consider `Cc1cnc(NS(=O)(=O)c2ccccc2)s1`, for which the cytotoxicity at 70.5 h was -10%.

Consider `COc1cccc2c1OCC(CNc1cc(N)nc(SC)n1)C2` (centres undefined), for which the cytotoxicity at 70.5 h was -8.3%.
